According to patent EP0000816A1, “Substituted amino-pyridine derivatives, processes for their preparation and pharmaceutical compositions containing them” (BEECHAM GROUP PLC, priority 1977, dated 1979):

System: male albino rats (C.F.Y. strain)
Experiment: Hypolipidaemic assay: serum total cholesterol and triglyceride in rats given compound in diet
Type: in vivo
Details: 0.1% in diet for seven days; for % Cholesterol Lowering: serum total cholesterol compared with controls; for % Triglyceride Lowering: serum triglyceride compared with controls
Method: Groups of 8 male albino rats (C.F.Y. strain), weighing approximately 150 g., were given a powdered commercially available diet (oxoid) to which compounds were added at level of 0.1%. These diets were fed for seven days. The rats were then killed and their serum total cholesterol and triglyceride were measured by the Technicon Autoanalyser.

Row | Structure (SMILES) | % Cholesterol Lowering | % Triglyceride Lowering
1 | O=C(O)c1ccc(NCc2ccccc2)nc1 | 34% | 30%
2 | O=C(O)c1ccc(NCCCc2ccccc2)nc1 | 16% | 38%
